Assay results reported in ChEMBL document CHEMBL4270589, “Novel coumarin-pyrazole carboxamide derivatives as potential topoisomerase II inhibitors: Design, synthesis and antibacterial activity” (Eur J Med Chem, 2018).
In brackets after ≈: the same amount, converted by molar mass.

What was measured:
Format in all cases: functional
Staphylococcus aureus = experiment: Antibacterial activity against Staphylococcus aureus ATCC 12600 after 24 hrs by agar dilution method; conditions: ATCC 12600, 24 h
Salmonella enterica = experiment: Antibacterial activity against Salmonella enterica ATCC 9184 after 24 hrs by agar dilution method; conditions: ATCC 9184, 24 h
Escherichia coli = experiment: Antibacterial activity against Escherichia coli ATCC 25922 after 24 hrs by agar dilution method; conditions: ATCC 25922, 24 h
Listeria monocytogenes = experiment: Antibacterial activity against Listeria monocytogenes ATCC 15313 after 24 hrs by agar dilution method; conditions: ATCC 15313, 24 h

| Compound | MIC (Staphylococcus aureus) | MIC (Salmonella enterica) | MIC (Escherichia coli) | MIC (Listeria monocytogenes) |
| --- | --- | --- | --- | --- |
| O=C(O)c1cnn(-c2ccc(F)cc2)c1NC(=O)c1cc2cc(Br)ccc2oc1=O | > 128 µg/mL | 32 µg/mL (≈ 67.8 µM) | 4 µg/mL (≈ 8.47 µM) | 32 µg/mL (≈ 67.8 µM) |
| N#Cc1cnn(-c2ccc(F)cc2)c1NC(=O)c1cc2ccccc2oc1=O | > 128 µg/mL | > 128 µg/mL | > 128 µg/mL | 64 µg/mL (≈ 171 µM) |
| O=C(O)c1cnn(-c2ccc(F)cc2)c1NC(=O)c1cc2ccccc2oc1=O | > 128 µg/mL | > 128 µg/mL | > 128 µg/mL | > 128 µg/mL |
| CCOC(=O)c1cnn(-c2ccc(C)cc2)c1NC(=O)c1cc2ccccc2oc1=O | > 128 µg/mL | > 128 µg/mL | > 128 µg/mL | 32 µg/mL (≈ 76.7 µM) |
| O=C(O)c1cnn(-c2ccccc2)c1NC(=O)c1cc2cc(Br)ccc2oc1=O | > 128 µg/mL | > 128 µg/mL | > 128 µg/mL | > 128 µg/mL |
| N#Cc1cnn(-c2ccccc2)c1NC(=O)c1cc2ccccc2oc1=O | 16 µg/mL (≈ 44.9 µM) | 32 µg/mL (≈ 89.8 µM) | 64 µg/mL (≈ 180 µM) | 64 µg/mL (≈ 180 µM) |
| O=C(O)c1cnn(-c2ccc(Cl)cc2)c1NC(=O)c1cc2ccccc2oc1=O | 32 µg/mL (≈ 78.1 µM) | 32 µg/mL (≈ 78.1 µM) | 64 µg/mL (≈ 156 µM) | 32 µg/mL (≈ 78.1 µM) |
| CCOC(=O)c1cnn(-c2ccc(C)cc2)c1NC(=O)c1cc2cc(Br)ccc2oc1=O | 32 µg/mL (≈ 64.5 µM) | 2 µg/mL (≈ 4.03 µM) | 32 µg/mL (≈ 64.5 µM) | 2 µg/mL (≈ 4.03 µM) |
| CCOC(=O)c1cnn(-c2ccc(F)cc2)c1NC(=O)c1cc2ccccc2oc1=O | > 128 µg/mL | > 128 µg/mL | > 128 µg/mL | > 128 µg/mL |
| CCOC(=O)c1cnn(-c2ccc(Cl)cc2)c1NC(=O)c1cc2ccccc2oc1=O | 16 µg/mL (≈ 36.5 µM) | 16 µg/mL (≈ 36.5 µM) | 64 µg/mL (≈ 146 µM) | 64 µg/mL (≈ 146 µM) |
| O=C(O)c1cnn(-c2ccccc2)c1NC(=O)c1cc2ccccc2oc1=O | > 128 µg/mL | > 128 µg/mL | > 128 µg/mL | 32 µg/mL (≈ 85.3 µM) |
| CCOC(=O)c1cnn(-c2ccc(F)cc2)c1NC(=O)c1cc2cc(Br)ccc2oc1=O | 64 µg/mL (≈ 128 µM) | > 128 µg/mL | 4 µg/mL (≈ 8 µM) | > 128 µg/mL |
| Cc1ccc(-n2ncc(C#N)c2NC(=O)c2cc3cc(Br)ccc3oc2=O)cc1 | > 128 µg/mL | 64 µg/mL (≈ 142 µM) | > 128 µg/mL | 8 µg/mL (≈ 17.8 µM) |
| O=C(O)c1cnn(-c2ccc(Cl)cc2)c1NC(=O)c1cc2cc(Br)ccc2oc1=O | 32 µg/mL (≈ 65.5 µM) | 32 µg/mL (≈ 65.5 µM) | 4 µg/mL (≈ 8.19 µM) | 32 µg/mL (≈ 65.5 µM) |
| Cc1ccc(-n2ncc(C(=O)O)c2NC(=O)c2cc3ccccc3oc2=O)cc1 | 64 µg/mL (≈ 164 µM) | > 128 µg/mL | 64 µg/mL (≈ 164 µM) | > 128 µg/mL |
| N#Cc1cnn(-c2ccccc2)c1NC(=O)c1cc2cc(Br)ccc2oc1=O | > 128 µg/mL | > 128 µg/mL | > 128 µg/mL | > 128 µg/mL |

Continued, values first:

| MIC (Staphylococcus aureus) | MIC (Salmonella enterica) | MIC (Escherichia coli) | MIC (Listeria monocytogenes) | Compound |
| --- | --- | --- | --- | --- |
| 4 µg/mL (≈ 7.74 µM) | 32 µg/mL (≈ 61.9 µM) | 8 µg/mL (≈ 15.5 µM) | 1 µg/mL (≈ 1.94 µM) | CCOC(=O)c1cnn(-c2ccc(Cl)cc2)c1NC(=O)c1cc2cc(Br)ccc2oc1=O |
| 16 µg/mL (≈ 39.7 µM) | 2 µg/mL (≈ 4.96 µM) | 64 µg/mL (≈ 159 µM) | 64 µg/mL (≈ 159 µM) | CCOC(=O)c1cnn(-c2ccccc2)c1NC(=O)c1cc2ccccc2oc1=O |
| 4 µg/mL (≈ 8.52 µM) | 0.25 µg/mL (≈ 0.532 µM) | 8 µg/mL (≈ 17 µM) | 16 µg/mL (≈ 34.1 µM) | N#Cc1cnn(-c2ccc(Cl)cc2)c1NC(=O)c1cc2cc(Br)ccc2oc1=O |
| 16 µg/mL (≈ 33.2 µM) | 64 µg/mL (≈ 133 µM) | 16 µg/mL (≈ 33.2 µM) | 16 µg/mL (≈ 33.2 µM) | CCOC(=O)c1cnn(-c2ccccc2)c1NC(=O)c1cc2cc(Br)ccc2oc1=O |
| 8 µg/mL (≈ 21.6 µM) | > 128 µg/mL | 32 µg/mL (≈ 86.4 µM) | > 128 µg/mL | Cc1ccc(-n2ncc(C#N)c2NC(=O)c2cc3ccccc3oc2=O)cc1 |
| 2 µg/mL (≈ 4.41 µM) | > 128 µg/mL | 64 µg/mL (≈ 141 µM) | 64 µg/mL (≈ 141 µM) | N#Cc1cnn(-c2ccc(F)cc2)c1NC(=O)c1cc2cc(Br)ccc2oc1=O |
| 4 µg/mL (≈ 10.2 µM) | 16 µg/mL (≈ 40.9 µM) | 32 µg/mL (≈ 81.9 µM) | 32 µg/mL (≈ 81.9 µM) | N#Cc1cnn(-c2ccc(Cl)cc2)c1NC(=O)c1cc2ccccc2oc1=O |
